From patent US20030203850A1, “Transdifferentiation of pancreatic acinar cells” (McGill University, priority 2002, published 2003)
Ends that are not written are not given here.

Tested on: β-cell mass
Assay: INGAP peptide administration to hamsters: extra-islet acinar-associated and total β-cell mass
Assay type: in vivo
Conditions: 250 μg twice daily intra-peritoneal, female Syrian hamsters
Procedure: Female Syrian hamsters, 8 weeks of age, were randomly allocated to receive daily intra-peritoneal injections of INGAP peptide (Ile-Gly-Leu-His-Asp-Pro-Ser-His-Gly-Thr-Leu-Pro-Asn-Gly-Ser) (250 μg twice daily) or an equivalent volume of saline for either 10 (saline n=10, INGAP n=15) or 30 (S n=10, I n=15) days. At the end of the study period, animals were sacrificed by bleeding, and the pancreata excised through a midline laparotomy incision, for morphologic and morphometric analysis.
Samples were embedded in paraffin wax and 4 μm-thick sections were cut. The sections were processed for routine histology and immunostained for insulin, CK19 (1:750, 1:100 respective antibody dilution, Dako Corp., Santa Barbara, Calif.), glucagon, somatostatin and pancreatic polypeptide (1:750 antibody dilution, Biogenex, San Ramon, Calif., USA), using the AB complex method (streptavidin-biotin horseradish peroxidase complex, Dako Corp., Santa Barbara, Calif.), as described previously (22). A rabbit PDX-1 antibody directed against the NH2-terminus of the frog homologue of the protein encoded by the pdx-1 gene was used as the primary antibody (1:750 dilution; a gift from C. Wright, Vanderbilt University). Slides were countered stained with Harris hematoxylin (Sigma, St. Louis, Mo.).
Comparison between groups was done using 1-way ANOVA, 2-way ANOVA with post hoc one-tail t-test or X^2 analysis where appropriate. Data are presented as mean±SEM. Significance was accepted at the 5% level.
To determine β-cell mass (mg/pancreas), each gland was sectioned along its longitudinal axis to avoid any sampling bias due to regional variation in islet distribution and cell composition. Islet cross-sectional areas were traced manually with the aid of an Olympus BX60 microscope connected by video camera to a computer equipped with Image-pro Plus software version 4.0 (23). The total β-cell mass was calculated by a stereological equation, as described previously (22).
β-cell neogenesis and acinar-associated β-cell mass was analysed as described previously […]. Briefly, extra-islet acinar-associated β-cells/cell clusters were defined as insulin positive cells/cell clusters not associated with any other endocrine cells (α, δ, PP), completely surrounded by acinar tissue and a minimum of 100 μm from ductular tissue. The percent β-cell area being extra-islet acinar-associated was determined and multiplied by the weight of the excised organ to determine extra-islet acinar-associated β-cell mass.

IGLHDPSHGTLPNGS [INGAP peptide]
increase in extra-islet acinar-associated β-cell mass versus saline infused controls (10 days of treatment): 180% | increase in total β-cell mass (10 days of treatment): 44% | increase in total β-cell mass (30 days of treatment): 31% | increase in extra-islet acinar-associated β-cell mass versus saline infused controls (30 days of treatment, p<0.05): 200%
